Consider one molecule from BindingDB's records for doi:10.1021/jm401801t (University of Geneva, 2014).

Usually pIC50 stands for the negative decadic logarithm of the IC50, by convention in mol/L.

pIC50: −log10 of the molar value.

A short description of assay [1]: Inhibition of human HSP90beta expressed in yeast assessed as growth inhibition of host after 72 hrs.
Assay [2] can be described thus: Inhibition of human HSP90alpha expressed in yeast assessed as growth inhibition of host after 72 hrs.

`COCC(=O)Nc1c(C(=O)OC)n(CCC(C)C)c2ncc(NC(C)CCC=C(C)C)cc12` (configuration not stated): the pIC50 in assay [1] is 3.92; in assay [2], 3.51.
